Measured values published in patent US7534766B2, “Glucuronide metabolites and epimers thereof of tigecycline” (Wyeth, priority 2004, dated 2009).

Columns and labels:
[1] = Estimated concentrations in rabbit serum by LC/MS (SRM) after intravenous tigecycline; assay type: in vivo, New Zealand White rabbit
Procedure: Three female New Zealand White rabbits, weighing between 3.9 and 4.3 kg at the time of dosing, were used. Animals were given food and water ad libitum. Animals were individually housed in standard cages. Rabbits were dosed at Wyeth Research, Chazy, N.Y. and samples shipped frozen to the Wyeth Research Biotransformation Department, Collegeville, Pa.
Standard curves for tigecycline, M3 and M9 were prepared in rabbit serum. Standard curves were prepared by adding the internal standard and synthetic tigecycline and metabolite standards to control plasma. Standard curve samples were prepared with tigecycline concentrations of 0, 10, 20, 50, 100, 200, 500 and 1000 ng/mL, with the linear range being […]. For 9-aminominocycline (M3), the concentrations were 0, 1, 5, 10, 20, 50, 100 and 200 ng/mL, with the linear range being 10 to 200 ng/mL. For N-acetyl-9-aminominocycline (M9), the concentrations were 1.6, 3.2, 6.4, 16, 32, 64 and 96 ng/mL, with the linear range being from 3.2 to 96 ng/mL. These samples were processed and analyzed as described above.
The column temperature was 25° C. The flow rate was 0.2 mL/min. […] Gradient 1 was used for metabolite identification (qualitative analysis).
Micromass MassLynx (version 4.0, Waters Corp.) was used for analysis of LC/MS data. The concentrations of tigecycline, 9-aminominocycline (M3) and N-acetyl-9-aminominocycline (M9) in serum were calculated based on the analyte to internal standard peak area ratios in the samples as compared to the standard curves generated in rabbit serum.

[2] = Mass balance: percent of [14C]tigecycline dose excreted in human urine and feces
Procedure: The concentration of tigecycline-related components in serum, urine and feces was calculated based on the total radioactivity concentrations reported elsewhere. These concentrations were converted to ng-tigecycline equivalents using the specific activity of the dose (1.00 μCi/mg). Using this value, the concentrations of the specific components were then estimated based on the distribution of radioactivity in the radiochromatograms.
An open-label, inpatient, multiple-dose tigecycline, single-dose [^14C]tigecycline metabolic disposition and mass balance study was performed in six healthy male volunteers. The clinical protocol called for twelve subjects. Of these twelve, six received the radioactive dose (subjects 1, 4, 5, 6, 7, and 8 with subject 8 later dropping out of the study.) Eligible subjects were selected based on inclusion/exclusion criteria, medical history, physical examination and additional procedures outlined in the study protocol. Each subject received a 100 mg loading dose on the morning of Day 1, followed by a 50 mg maintenance dose every 12 hours for an additional 5 doses. On the morning of study Day 4, six subjects received a single 50 mg dose of [^14C]tigecycline (50 μCi). Each tigecycline dose was administered via a 30-minute intravenous infusion.
Serum samples were collected for metabolite profiling prior to tigecycline dosing and 1, 4, 8, 24 and 48 hours following the [^14C]-labeled dose. For metabolite profiling, urine samples were collected at 0-4, 4-8, 8-24 and 24-48 hours and fecal samples were collected up to 48 hours following the [^14C]-labeled dose. Serum and urine samples, and fecal homogenates were shipped on dry ice to the Biotransformation Division of Drug Safety and Metabolism, Wyeth Research, Collegeville, Pa. The details of the sample collection and sample storage are described in the mass balance portion of the study. The 24-48 hour urine and fecal samples for subject #6 were incomplete since the subject withdrew from the study. While samples from this subject were used for metabolite profiling, the samples were not included in the mass balance calculations.

[3] = LC/MS detection of tigecycline and its metabolites in humans, dogs and/or rats; details: LC/MS of human serum, urine, feces and rat and dog plasma and urine
Procedure: Characterization of the tigecycline metabolites in human serum, urine and feces, and rat and dog plasma and urine was performed using LC/MS analysis (Table 5).

[4] = Safety and tolerability of intravenous tigecycline in healthy male volunteers; assay type: in vivo, human; details: IV 100-mg dose, five 50-mg doses, single 50-mg [14C]tigecycline dose
Excerpt: The clinical protocol called for twelve subjects.

[5] = LC/MS characterization of tigecycline related compounds in human serum, urine and feces; assay type: in vivo; details: human, after single 50 mg IV [14C]tigecycline dose
Excerpt: Three HPLC conditions were used during LC/MS analysis in this study. LC/MS Condition 1 was used for the majority of sample analyses for metabolite characterization and to isolate metabolite M3a from urine. LC/MS Condition 2 was used on selected samples to increase the retention time of glucuronide metabolites and for a co-chromatography experiment to confirm the identity of metabolites M8 and M9. LC/MS Condition 3 was used to analyze the polar metabolite M3a isolated from human urine.
The UV detector was set to monitor 340-360 nm. […] The flow rate was 0.2 mL/min. […] The linear mobile phase gradient is shown below.
Separations were accomplished on a Phenomenex Luna C18(2) column (250×2.0 mm, 5 μm) with a Uniguard C18 guard column (10×2 mm) (ThermoHypersil-Keystone). The flow rate was 0.2 mL/min. […] Mobile phase A was 0.02% trifluoroacetic acid in water (v/v) and mobile phase B was 0.02% trifluoroacetic acid in acetonitrile (v/v). The linear mobile phase gradient is shown below.
A Micromass Quattro Ultima triple quadrupole mass spectrometer (Waters Corp.) was operated in the positive ionization mode. LC/MS analysis with electrospray ionization (ESI) was conducted using a Z-spray interface. ESI-MS analysis of individual fractions from selected samples was conducted by direct infusion into a nanospray interface. Settings for the mass spectrometer are listed below.
Urine and feces samples were analyzed for tigecycline metabolites by LC/MS/MS analysis for precursors of product ions characteristic of tigecycline. Additionally, potential metabolites of tigecycline were searched for in the LC/MS data based upon results from previous studies in animals and humans.
Serum extracts were analyzed for tigecycline and selected metabolites by LC/MS/MS in the selected reaction monitoring (SRM) mode (LC/SRM) to reduce interference from endogenous components. […] The following tigecycline related components were monitored.

[6] = Stability of [14C]tigecycline during extraction from control human fecal homogenates; assay type: in vitro ADME
Excerpt: Similar results were observed following the extraction of [^14C]tigecycline from control fecal homogenates. In these samples, [^14C]tigecycline accounted for 94% of the radioactivity prior to extraction and 68% following the extraction. There was a corresponding increase in the epimer of tigecycline, which represented 4% of the radioactivity prior to extraction and 23% following the extraction. […] Other minor products represented less than 1% of the radioactivity prior to the extraction and 4% following the extraction.
The stability of [^14C]tigecycline during the extraction process was determined in control human fecal homogenates spiked with [^14C]tigecycline at 5 μg/g of homogenate. […] Samples were extracted and analyzed by HPLC with radioactivity flow detection.

CN(C)c1cc(NC(=O)CNC(C)(C)C)c(O)c2c1C[C@H]1C[C@H]3[C@H](N(C)C)C(O)=C(C(N)=O)C(=O)[C@@]3(O)C(O)=C1C2=O [Tigecycline]
concentration at 0.5 h ([1]; 0.5 hr after 4 mg/kg IV tigecycline, pooled serum, female New Zealand White rabbits): 2020 ng/mL
concentration at 2 h ([1]; female, New Zealand White, 2 hr after 4 mg/kg IV tigecycline, pooled serum): 1040 ng/mL
concentration at 6 h ([1]; female, New Zealand White, 6 hr after 4 mg/kg IV tigecycline, pooled serum): 287 ng/mL
concentration at 1 h ([1]; female, New Zealand White, serum, at 1 hour, 4 mg/kg IV tigecycline): 2020 ng/mL
Percentage of Dose (mean ± standard deviation) excreted ([2]; Feces (0–48 hours), n = 5): 9.9 ± 7.9%
Percentage of Dose (mean ± standard deviation) excreted ([2]; Total Urine (0-48 hours), n = 5, ND = not detected): 14.8 ± 2.9%
Percentage of Dose (mean ± standard deviation) excreted ([2]; Total urine + feces (0–48 hours), n = 5): 24.7 ± 8.7%
Percentage of Dose (mean ± standard deviation) excreted ([2]; Urine 0–4 hours, ND = not detected): 7.1 ± 0.9%
Percentage of Dose (mean ± standard deviation) excreted ([2]; Urine 4–8 hours, ND = not detected): 2.4 ± 1.1%
Percentage of Dose (mean ± standard deviation) excreted ([2]; Urine 8–24 hours, ND = not detected): 3.3 ± 1.1%
Percentage of Dose (mean ± standard deviation) excreted ([2]; Urine 24–48 hours, n = 5, ND = not detected): 1.7 ± 0.7%
Species in which detected [3]: R, D, H
adverse event frequency: dyspepsia [4]: 17%
adverse event frequency: injection site inflammation [4]: 17%
adverse event frequency: nausea [4]: 75%
adverse event frequency: vomiting [4]: 50%
safety and tolerability [4]: generally safe and well tolerated
Matrix in which the compound was observed [5]: S, U, F

CC(C)(C)NCC(=O)O [Metabolite M3a, t-butylaminoacetic acid]
Species in which detected [3]: R, D, H
Matrix in which the compound was observed [5]: S, U, F
increase in percent of the radioactivity, control fecal homogenates ([6]; during the extraction): 4%
percent of the radioactivity, control fecal homogenates ([6]; following the extraction): 5%
percent of the radioactivity, control fecal homogenates ([6]; prior to extraction, 5 μg/g of homogenate): 1%
